# Data published in the C3SDB collision cross section collection.
# Where “and” joins values, the source holds several entries; their conditions need not be identical. Equal values may be shown once.
# Details: instrument: DT, single field, calibrated with Agilent tune mix (Agilent)
smiles,measurement,setting,value
Nc1[nH]c(=O)nc2nc[nH]c12 [2-Hydroxyadenine],collision cross section (N2),[M+H]+,127 Å²
same,collision cross section (N2),[M-H]-,121.04 Å²
CC(C)C(O)(CC(=O)O)C(=O)O (stereo not drawn) [2-Isopropylmalic acid],collision cross section (N2),[M+Na]+,140.9 Å²
same,collision cross section (N2),[M-H]-,128.12 Å²
CC(CCC(=O)O)C(=O)O (stereo not drawn) [2-Methylglutaric acid],collision cross section (N2),[M-H]-,123.84 Å²
CO[C@H]1[C@@H](O)[C@H](n2cnc3c(=O)nc(N)[nH]c32)O[C@@H]1CO [3'-O-methylguanosine],collision cross section (N2),[M+Na]+,178.1 Å²
same,collision cross section (N2),[M-H]-,163.78 Å²
"O=C(O)c1ccc([O-])c(O)c1 [3,4-Dihydroxybenzoate]",collision cross section (N2),[M-H]-,120.45 Å²
"Cn1c(=O)[nH]c(=O)c2c1[nH]c(=O)n2C [3,7-Dimethyluric acid]",collision cross section (N2),[M-H]-,133.95 Å²
O=C(O)CCc1cccc(O)c1 [3-(3-Hydroxyphenyl)propanoic acid],collision cross section (N2),[M-H]-,136.11 Å²
Nc1c(O)cccc1C(=O)C[C@H](N)C(=O)O [3-Hydroxy-L-kynurenine],collision cross section (N2),[M+H-H2O]+,137.5 Å²
O=C(O)c1cccc([O-])c1 [3-Hydroxybenzoate],collision cross section (N2),[M-H]-,125.4 Å²
CC(C)[C@H](C(=O)O)[C@@H](O)C(=O)O [3-Isopropylmalate],collision cross section (N2),[M-H]-,127.46 Å²
Cn1cncc1C[C@H](N)C(=O)O [3-Methylhistidine],collision cross section (N2),[M+H]+,134.1 Å²
same,collision cross section (N2),[M-H]-,134.37 Å²
Cn1c(=O)ccn([C@@H]2O[C@H](CO)[C@@H](O)[C@H]2O)c1=O [3-Methyluridine],collision cross section (N2),[M+Na]+,164.2 Å²
same,collision cross section (N2),[M-H]-,166.84 Å²
Cn1c(=O)[nH]c(=O)c2[nH]cnc21 [3-Methylxanthine],collision cross section (N2),[M-H]-,124.48 Å²
Nc1ccc(C(=O)[O-])cc1 [4-Aminobenzoate],collision cross section (N2),[M+H]+,140.4 Å²
COc1ccc(/C=C/C(=O)O)cc1 [4-Methoxycinnamic acid],collision cross section (N2),[M+H]+,140.8 Å²
same,collision cross section (N2),[M-H]-,146.28 Å²
NC(=O)c1ncn([C@@H]2O[C@H](COP(=O)(O)O)[C@@H](O)[C@H]2O)c1N [5'-Phosphoribosyl-5-amino-4-imidazolecarboxamide],collision cross section (N2),[M+H]+,171.6 Å²
same,collision cross section (N2),[M-H]-,167.62 Å²
CC(O)CCCC(=O)O (stereo not drawn) [5-Hydroxyhexanoic acid],collision cross section (N2),[M-H]-,125.8 Å²
NC(Cc1c[nH]c2ccc(O)cc12)C(=O)O (stereo not drawn) [5-Hydroxytryptophan],collision cross section (N2),[M+Na]+,152.2 Å²
same,collision cross section (N2),[M-H]-,149.2 Å²
COc1ccc2[nH]cc(CCN)c2c1 [5-Methoxytryptamine],collision cross section (N2),[M-H]-,141.18 Å²
O=P(O)(O)OC[C@H]1O[C@H](OP(=O)(O)OP(=O)(O)O)[C@H](O)[C@@H]1O [5-Phospho-alpha-D-ribose 1-diphosphate],collision cross section (N2),[M+Na-2H]-,161.1 Å²
"C[C@]12CCC(=O)C[C@@H]1CC[C@@H]1[C@@H]2CC[C@]2(C)C(=O)CC[C@@H]12 [5alpha-Androstane-3,17-dione]",collision cross section (N2),[M+H]+,180.6 Å²
same,collision cross section (N2),[M-H]-,174.32 Å²
"Nc1nc(=O)c2c([nH]1)NCC(CNc1ccc(C(=O)N[C@@H](CCC(=O)O)C(=O)O)cc1)=N2 [7,8-Dihydrofolate]",collision cross section (N2),[M+H]+,193.6 Å²
same,collision cross section (N2),[M-H]-,196.42 Å²
Cn1c[n+]([C@@H]2O[C@H](CO)[C@@H](O)[C@H]2O)c2[nH]c(N)nc(=O)c21 [7-Methylguanosine],collision cross section (N2),[M]+,166.5 Å²
Cn1cnc2[nH]c(=O)[nH]c(=O)c21 [7-Methylxanthine],collision cross section (N2),[M+H]+,130.8 Å²
same,collision cross section (N2),[M-H]-,128.75 Å²
O=C(O)CCCCCCCCCCCCCCCO [16-Hydroxypalmitic acid],collision cross section (N2),[M+Na]+,178.2 Å²
same,collision cross section (N2),[M-H]-,168.99 Å²
CC(=O)[C@@]1(O)CC[C@H]2[C@@H]3CCC4=CC(=O)CC[C@]4(C)[C@H]3CC[C@@]21C [17alpha-Hydroxyprogesterone],collision cross section (N2),[M+H]+,183.4 Å²
same,collision cross section (N2),[M-H]-,183.75 Å²
O=C(O)CC[C@H](O)C(=O)O [(S)-2-Hydroxyglutarate],collision cross section (N2),[M-H]-,118.99 Å² and 119.14 Å²
Nc1ncnc2c1ncn2[C@@H]1O[C@H](COP(=O)(O)OP(=O)(O)O[C@H]2O[C@H](CO)[C@@H](O)[C@H](O)[C@H]2O)[C@@H](O)[C@H]1O [ADP-glucose],collision cross section (N2),[M+H]+,214.5 Å²
"Nc1ncnc2c1ncn2[C@@H]1O[C@H](COP(=O)(O)O)[C@@H](OP(=O)(O)O)[C@H]1O [Adenosine 3',5'-diphosphate]",collision cross section (N2),[M+H]+,182.5 Å²
same,collision cross section (N2),[M-H2O-H]-,179.49 Å²
Nc1ncnc2c1ncn2[C@@H]1O[C@H](CO)[C@@H](OP(=O)(O)O)[C@H]1O [Adenosine 3'-monophosphate],collision cross section (N2),[M-H]-,171.18 Å²
O=C(O)CC(Nc1ncnc2c1ncn2[C@@H]1O[C@H](COP(=O)(O)O)[C@@H](O)[C@H]1O)C(=O)O (stereo partly drawn) [Adenylsuccinic acid],collision cross section (N2),[M+Na]+,195.6 Å²
same,collision cross section (N2),[M-H]-,183.19 Å²
CC1=C(/C=C/C(C)=C/C=C/C(C)=C/C(=O)O)C(C)(C)CCC1 [All-trans-retinoic acid],collision cross section (N2),[M-H]-,203.42 Å²
NC(=O)NC(NC(N)=O)C(=O)O [Allantoic acid],collision cross section (N2),[M+Na]+,143 Å²
NC(CSCC[C@H](N)C(=O)O)C(=O)O (stereo partly drawn) [Allocystathionine],collision cross section (N2),[M+H]+,146.7 Å²
NC(=O)CC[C@H](NC(=O)Cc1ccccc1)C(=O)O [Alpha-N-Phenylacetyl-L-glutamine],collision cross section (N2),[M+H]+,158.7 Å²
same,collision cross section (N2),[M-H]-,162.82 Å²
Nc1ccc(C(=O)NCC(=O)O)cc1 [Aminohippuric acid],collision cross section (N2),[M+Na]+,153.7 Å²
same,collision cross section (N2),[M-H]-,147.55 Å²
OC[C@H]1O[C@@H](Oc2ccc(O)cc2)[C@H](O)[C@@H](O)[C@@H]1O [Arbutin],collision cross section (N2),[M+Na-2H]-,159.52 Å²
same,collision cross section (N2),[M+Na]+,166.6 Å²
NC(=NCCC[C@H](N)C(=O)O)N[C@@H](CC(=O)O)C(=O)O [Argininosuccinic acid],collision cross section (N2),[M+H]+,163.9 Å²
same,collision cross section (N2),[M+Na-2H]-,159.57 Å²
CCCCCCCCCCCCCCCCCC(=O)OC[C@H](O)[C@H]1OC(=O)C(O)=C1O [Ascorbyl stearate],collision cross section (N2),[M-H]-,207.62 Å²
O=C(O)CCCCCCCC(=O)O [Azelaic acid],collision cross section (N2),[M-H]-,137.38 Å²
N[C@@H](CCCCNC(=O)CCCC[C@@H]1SC[C@@H]2NC(=O)N[C@@H]21)C(=O)O [Biocytin],collision cross section (N2),[M+H]+,186.8 Å²
same,collision cross section (N2),[M+Na-2H]-,189.78 Å²
C[C@@H](O)[C@@H](O)c1cnc2[nH]c(N)nc(=O)c2n1 [Biopterin],collision cross section (N2),[M+H]+,153.5 Å²
same,collision cross section (N2),[M-H]-,148.31 Å²
CCCCCC(=O)O [Caproic acid],collision cross section (N2),[M-H]-,128.54 Å²
CCCCCCCC(=O)O [Caprylic acid],collision cross section (N2),[M-H]-,139.46 Å²
C[C@H](CCC(=O)O)[C@H]1CC[C@H]2[C@@H]3[C@H](O)C[C@@H]4C[C@H](O)CC[C@]4(C)[C@H]3CC[C@]12C [Chenodeoxycholate],collision cross section (N2),[M-H]-,201.51 Å²
NCCP(=O)(O)O [Ciliatine],collision cross section (N2),[M+H]+,128.7 Å²
same,collision cross section (N2),[M-H]-,118.25 Å²
O=C(O)CC(O)(CC(=O)O)C(=O)O [Citrate],collision cross section (N2),[M+Na]+,142.4 Å²
COc1cc(/C=C/CO)ccc1O [Coniferol],collision cross section (N2),[M+H-H2O]+,128.6 Å²
same,collision cross section (N2),[M-H]-,138.18 Å²
"Nc1ccn(C2O[C@H](CO)[C@H]3OP(=O)(O)O[C@@H]23)c(=O)n1 (stereo partly drawn) [Cytidine 2',3'-cyclic phosphate]",collision cross section (N2),[M+H]+,162.3 Å²
same,collision cross section (N2),[M+Na-2H]-,161.98 Å²
CC(=O)N[C@H]1[C@H]([C@H](O)[C@H](O)CO)O[C@](OP(=O)(O)OC[C@H]2O[C@@H](n3ccc(N)nc3=O)[C@H](O)[C@@H]2O)(C(=O)O)C[C@@H]1O [Cytidine monophosphate N-acetylneuraminic acid],collision cross section (N2),[M+Na]+,220.7 Å²
same,collision cross section (N2),[M-H]-,215.5 Å²
OC[C@H]1OC(O)[C@H](O)[C@@H](O)[C@H]1O (stereo partly drawn) [D-(+)-Galactose],collision cross section (N2),[M+Na]+,142.1 Å²
O=C(O)[C@@H](O)[C@@H](O)[C@H](O)[C@@H](O)C(=O)O [D-Glucarate],collision cross section (N2),[M-H]-,130.5 Å² and 130.92 Å²
Nc1nc(=O)c2nc([C@H](O)[C@H](O)CO)cnc2[nH]1 [D-Neopterin],collision cross section (N2),[M+H]+,157.1 Å²
same,collision cross section (N2),[M-H]-,150.31 Å²
NCCC[C@@H](N)C(=O)O [D-Ornithine],collision cross section (N2),[M-H]-,126.74 Å²
O=C(CO)[C@H](O)[C@H](O)COP(=O)(O)O [D-Ribulose 5-phosphate],collision cross section (N2),[M+Na]+,148.8 Å²
OCC1(O)OC[C@@H](O)[C@H](O)[C@@H]1O (stereo partly drawn) [D-Tagatose],collision cross section (N2),[M+Na]+,139 Å²
same,collision cross section (N2),[M-H]-,129.77 Å²
N[C@H]1C(O)O[C@H](COP(=O)(O)O)[C@@H](O)[C@@H]1O (stereo partly drawn) [D-glucosamine 6-phosphate],collision cross section (N2),[M+Na]+,156.6 Å²
C[C@H](CCC(=O)O)[C@H]1CC[C@H]2[C@@H]3CC[C@@H]4C[C@H](O)CC[C@]4(C)[C@H]3C[C@H](O)[C@]12C [Deoxycholic acid],collision cross section (N2),[M-H]-,200.7 Å²
Nc1ccn([C@H]2C[C@H](O)[C@@H](COP(=O)(O)OP(=O)(O)OP(=O)(O)O)O2)c(=O)n1 [Deoxycytidine 5'-triphosphate],collision cross section (N2),[M-H]-,176.92 Å²
Nc1nc(=O)c2ncn([C@H]3C[C@H](O)[C@@H](COP(=O)(O)OP(=O)(O)OP(=O)(O)O)O3)c2[nH]1 [Deoxyguanosine triphosphate],collision cross section (N2),[M-H]-,189.26 Å²
Cc1cn([C@H]2C[C@H](O)[C@@H](COP(=O)(O)O)O2)c(=O)[nH]c1=O [Deoxythymidine 5'-phosphate],collision cross section (N2),[M+Na]+,173.1 Å²
